Measured values as given in patent US20230293491A1, “COMPOSITIONS AND METHODS FOR DIAGNOSIS AND TREATMENT OF CONDITIONS RELATED TO THE QUALITY OF AGING AND LONGEVITY” (EPITRACKER, INC., priority 2020, published 2023).

Biological target: T1, α-2 adrenoreceptor (Homo sapiens, UniProt P08913)
T1 construct: purchased Eurofins/DiscoverX SafetyScan47 panel
T1 sequence (P08913 1-465): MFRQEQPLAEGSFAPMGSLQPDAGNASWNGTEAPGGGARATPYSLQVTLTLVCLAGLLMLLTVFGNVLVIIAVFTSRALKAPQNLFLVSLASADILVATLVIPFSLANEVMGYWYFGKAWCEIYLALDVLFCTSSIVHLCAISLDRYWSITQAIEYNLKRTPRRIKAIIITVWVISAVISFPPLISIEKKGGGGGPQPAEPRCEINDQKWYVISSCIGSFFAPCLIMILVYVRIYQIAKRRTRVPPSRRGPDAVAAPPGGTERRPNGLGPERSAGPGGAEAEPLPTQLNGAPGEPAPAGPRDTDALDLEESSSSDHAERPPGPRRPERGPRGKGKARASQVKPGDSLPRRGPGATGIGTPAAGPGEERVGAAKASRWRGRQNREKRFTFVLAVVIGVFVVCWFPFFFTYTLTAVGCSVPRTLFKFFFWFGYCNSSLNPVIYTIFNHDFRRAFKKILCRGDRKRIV
Experiment: Eurofins/DiscoverX SafetyScan47 panel, α-2 adrenoreceptor agonist activity
Assay type: cell-based
Details: compared to UK 14304 control; between 3 nM and 6.7 µM
Excerpt: Given the associations between increased histidine betaine and improved health in the dolphin model, it was hypothesized that histidine betaine has direct therapeutic activities. To test this hypothesis, the Eurofins/DiscoverX SafetyScan47 panel was used to test histidine betaine at 10 concentrations for agonist and antagonist activities across 76 assays and 47 genes and targets that are relevant to compound safety and mechanisms of action, including G-protein coupled receptors, kinases, transporters, ion channels, nuclear receptors, and non-kinase enzymes. Detailed methods used for these assays and assay readouts are available from Eurofins/DiscoverX.
Of 47 pharmacological targets tested for activity with histidine betaine, the following had partial activities, achieving at least 15% that of internal positive controls between 3 nM and 6.7 µM: α-2 adrenoreceptor agonist (maximum activity = 27% compared to UK 14304 control), and cyclooxygenase-1 (COX1) inhibitor (maximum activity = 23% compared to indomethacin control) (FIG. 4).

## C[N+](C)(C)C(Cc1cnc[nH]1)C(=O)[O-] (stereo not shown) [histidine betaine]
  maximum activity, α-2 adrenoreceptor agonist: 27%
